How the values were obtained:
phospho-CAMKII protein = experiment: western blot of phospho-CAMKII in hippocampus; assay type: in vivo, Wistar rats; settings: compared with the negative control; FIGS. 13A, 13B
Procedure: (§1) Specifically, 12-week-old Wister rats (350 g to 380 g) were used for the experiments. After obtaining the experimental animals, appearance was visually inspected and then normal symptoms were observed during a 7-day acclimation period. Healthy animals were selected therefrom and assigned to groups by a random method according to body weight ranges, and then experiments were performed. […]
In order to investigate effects of mumefural on normalization of damaged hippocampus in the dementia-mimic animal model, mumefural was administered in the same manner as in Example 1, and then expression levels of neurotransmitter secretion substances in the hippocampus were analyzed.
Specifically, the hippocampus was excised from each of the dementia-mimic rats after administration of mumefural was completed, and proteins were extracted therefrom. Expression levels of phospho-Ca^2+/calmodulin-dependent protein kinase II (phospho-CAMKII) and Ca^2+/calmodulin-dependent protein kinase II (CAMKII) proteins were analyzed by western blotting. β-Actin was used as a loading control.

[1] = tested on: P2X7R, TLR4, MyD88, NLRP3, caspase1, IL-1β, IL-18, phospho-STAT3, and NF-κB (p65, p50) proteins; experiment: western blot of neurological inflammation proteins in hippocampus; assay type: in vivo, Wistar rats
Procedure: (§2) Specifically, 12-week-old Wister rats (350 g to 380 g) were used for the experiments. After obtaining the experimental animals, appearance was visually inspected and then normal symptoms were observed during a 7-day acclimation period. Healthy animals were selected therefrom and assigned to groups by a random method according to body weight ranges, and then experiments were performed. During the acclimation and experiment, a constant breeding environment was maintained under the conditions of a temperature of 23±3° C., a relative humidity of 50±10%, a ventilation frequency of 12 times to 16 times per hour, a 12-hour light-dark cycle (light on at 7:00, light off at 19:00), and an intensity of illumination of 150 Lx to 300 Lx. Experiments were performed using sterilized instruments, and the rats were allowed free access to tap water and a solid feed (PMI nutrition, USA) for 24 hours.
(§3) In order to construct a vascular dementia-mimic animal model, chronic cerebral hypoperfusion was induced by bilateral common carotid artery occlusion (2VO, hereinafter referred to as “brain damage (BCCA0)”) (Wakita et al., 1994). The rats were anesthetized with 4% isoflurane, and the anesthesia was maintained by 1.5% isoflurane during the operation. The central neck was incised to expose the bilateral common carotid artery carefully so as not to cause damage to the vagal nerve. Ligation was performed twice with No. 3 silk, thereby constructing an animal model in which dementia was induced by brain damage.
(§4) After 21 days from the BCCA0 operation, the Wistar rats were orally administered with mumefural for 42 days. The rats were divided into 5 groups listed in Table 1 below, and controls were orally administered with saline. Different concentrations of mumefural were set in the oral administration as low concentration (20 mg/kg), medium concentration (40 mg/kg), and high concentration (80 mg/kg).
In order to investigate effects of mumefural on reduction of neurological inflammation in the dementia-mimic animal model, mumefural was administered in the same manner as in Example 1, and then expression levels of P2X purinoceptor 7 (P2X7R), toll-like receptor 4 (TLR4), myeloid differentiation primary response 88 (MyD88), nucleotide-binding oligomerization domain-like receptor protein 3 (NLRP3), caspase1, interleukin (IL)-1β, IL-18, phospho-signal transducer and activator of transcription 3 (phospho-STAT3), and NF-κB (p65, p50) proteins were measured in the hippocampus. Meanwhile, these proteins provoke inflammation of nerve cells, causing damage to the brain and resulting in diseases such as dementia.
Specifically, the hippocampus was excised from each of the dementia-mimic rats after administration of mumefural was completed, and proteins were extracted therefrom. Expression levels of the proteins were analyzed by western blotting. β-Actin and LaminB1 were used as loading controls.

[2] = tested on: ChAT-positive cholinergic cells; experiment: immunohistostaining of ChAT-positive cholinergic cells in basal forebrain; assay type: in vivo, Wistar rats; settings: BCCAo rats, oral mumefural; compared with the negative control; FIGS. 4A, 4B
Procedure: as §1
In order to investigate effects of mumefural on normalization of the cholinergic system in the dementia-mimic animal model, mumefural was administered in the same manner as in Example 1, and then the number of cholinergic neurons of the basal forebrain was measured.
Specifically, the brain was excised from each of the dementia-mimic rats after administration of mumefural was completed and sectioned into slices with a thickness of 40 μm. Subsequently, the cholinergic neurons of the basal forebrain were detected using choline acetyltransferase (ChAT) protein, which is known to be expressed in cholinergic neurons. The slices were stained by immunohistostaining using an anti-ChAT antibody as a primary antibody and a donkey anti-goat antibody as a secondary antibody, and anti-ChAT positive cells were detected.

[3] = tested on: ChAT, VAChT, and AChE proteins; experiment: western blot of ChAT, VAChT, and AChE proteins in hippocampus; assay type: in vivo; settings: compared with the negative control; FIGS. 7A, 7B
Procedure: as §2, §3, §4

[4] = tested on: NMDAR2A and NMDAR2B proteins; experiment: western blot of post-synaptic receptors in hippocampus; assay type: in vivo, Wistar rats; settings: compared with the negative control; FIGS. 12A, 12B
Procedure: as §1
In order to investigate effects of mumefural on normalization of damaged hippocampus in the dementia-mimic animal model, mumefural was administered in the same manner as in Example 1, and then amounts of post-synaptic receptors in the hippocampus were analyzed by examining expression levels of N-methyl-D-aspartate receptor 2A (NMDAR2A) and N-methyl-D-aspartate receptor 2B (NMDAR2B) proteins.
(§5) Specifically, the hippocampus was excised from each of the dementia-mimic rats after administration of mumefural was completed, and the proteins were extracted therefrom. Expression levels of the NMDAR2A and NMDAR2B proteins were analyzed by western blotting. β-Actin was used as a loading control.

[5] = tested on: PSD-95 and synaptophysin-1 proteins; experiment: western blot of synaptic markers in hippocampus; assay type: in vivo, Wistar rats; settings: compared with the negative control; FIGS. 11A, 11B
Procedure: as §2, with “Experiments were performed using sterilized instruments, and the rats were allowed free access to tap water and a solid feed (PMI nutrition, USA) for 24 hours.” left out
In order to investigate effects of mumefural on normalization of synaptic markers in the dementia-mimic animal model, mumefural was administered in the same manner as in Example 1, and then expression levels of PSD-95 and synaptophysin-1 proteins in the hippocampus were analyzed.
as §5, with “PSD-95” for “NMDAR2A”, “synaptophysin-1” for “NMDAR2B”

MBP = experiment: western blot of MBP in hippocampus; assay type: in vivo, Wistar rats; settings: compared with the negative control, FIG. 10
Procedure: as §2
In order to construct a vascular dementia-mimic animal model, chronic cerebral hypoperfusion was induced by bilateral common carotid artery occlusion (2VO, hereinafter referred to as “brain damage (BCCA0)”) (Wakita et al., 1994). The rats were anesthetized with 4% isoflurane, and the anesthesia was maintained by 1.5% isoflurane during the operation. The central neck was incised to expose the bilateral common carotid artery carefully so as not to cause damage to the vagal nerve. […]

[6] = tested on: ChAT, VAChT, and AChE proteins; experiment: western blot of ChAT, VAChT, and AChE proteins in basal forebrain; assay type: in vivo; settings: compared with the negative control; FIGS. 5A, 5B
Procedure: as §2, §3, §4

[7] = western blot, compared to the negative control, FIGS. 17A, 17B

SMILES: O=Cc1ccc(COC(=O)CC(O)(CC(=O)O)C(=O)O)o1 (centres unmarked) [mumefural]
- expression level of the phospho-CAMKII protein in hippocampus (phospho-CAMKII protein): significantly increased
- neurological inflammation protein expression, effect vs normal control ([1]; 20 mg/kg, 40 mg/kg, and 80 mg/kg oral): effects similar to or superior to those of the normal control
- expression level of IL-1β protein in hippocampus [1, 7]: decreased
- expression level of IL-18 protein in hippocampus [1, 7]: decreased
- expression level of MyD88 protein in hippocampus [1, 7]: decreased
- expression level of NLRP3 protein in hippocampus [1, 7]: decreased
- expression level of P2X7R protein in hippocampus [1, 7]: decreased
- expression level of TLR4 protein in hippocampus [1, 7]: decreased
- expression level of caspase1 protein in hippocampus [1, 7]: decreased
- expression level of phospho-STAT3 protein in hippocampus ([1]; western blot, compared to the negative control, FIGS. 18A, 18B): decreased
- expression level of NF-κB (p65, p50) proteins in hippocampus ([1]; western blot, compared to the negative control, FIGS. 19A, 19B): decreased
- number of cells positive for the anti-ChAT antibody in the basal forebrain [2]: significantly increased
- expression level of AChE protein in the hippocampus [3]: decreased
- expression level of ChAT protein in the hippocampus [3]: increased
- expression level of VAChT protein in the hippocampus [3]: increased
- expression level of NMDAR2A protein in hippocampus [4]: significantly increased
- expression level of NMDAR2B protein in hippocampus [4]: significantly increased
- expression level of PSD-95 protein in hippocampus [5]: increased
- expression level of synaptophysin-1 protein in hippocampus [5]: increased
- density of the MBP in the hippocampus (MBP): increased
- expression level of AChE protein in the basal forebrain [6]: reduced
- expression level of ChAT protein in the basal forebrain [6]: increased
- expression level of VAChT protein in the basal forebrain [6]: increased
